The assay has as its target T1, human APJ receptor (Homo sapiens, UniProt P35414).
T1 construct: expressed in transfected cells; host or cells: HEK293
T1 sequence (P35414 1-380): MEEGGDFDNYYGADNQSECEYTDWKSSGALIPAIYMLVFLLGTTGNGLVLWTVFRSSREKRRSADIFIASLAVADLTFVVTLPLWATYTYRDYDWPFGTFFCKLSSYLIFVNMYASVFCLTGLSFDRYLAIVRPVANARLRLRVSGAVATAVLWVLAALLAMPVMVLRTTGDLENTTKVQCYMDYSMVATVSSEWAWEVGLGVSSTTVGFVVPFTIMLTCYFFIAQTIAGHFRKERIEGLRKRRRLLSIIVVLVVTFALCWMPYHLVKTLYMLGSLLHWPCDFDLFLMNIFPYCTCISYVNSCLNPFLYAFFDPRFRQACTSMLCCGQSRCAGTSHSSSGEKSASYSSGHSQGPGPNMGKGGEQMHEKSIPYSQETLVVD
As to the kind of experiment: Intracellular cAMP accumulation assay (APJ hcAMP, HTRF). Type of assay: cell-based. The settings on record: HEK293 cells stably expressing human APJ receptor, inhibition of forskolin-mediated cAMP production, Table 1. The protocol: Intracellular cAMP Accumulation Assay
HEK293 cells stably expressing human APJ receptor were used to assess the activity of compounds. Cultured cells were detached and resuspended in the cAMP Homogeneous Time-Resolved Fluorescence (HTRF) assay buffer (Cisbio cat; #62AM4PEJ). The assay was performed in 384-well assay plates (Perkin-Elmer; cat #6008289) according to assay protocol provided by the manufacturer. Serial dilutions of a compound together with assay buffer containing […] IBMX and 2 μM forskolin were added to each well containing 5,000 cells and incubated for 30 minutes at room temperature. Subsequently, cAMP D2 reagent was added in the lysis buffer followed by the EuK antibody (Cisbio; cat #62AM4PEJ) and incubated for 60 min. The fluorescence emission ratio was measured using fluorometer. The intracellular cAMP concentrations (compound-stimulated inhibition of forskolin-mediated cAMP production) were calculated by extrapolation from a standard curve using known cAMP concentrations. The EC50 values were obtained by fitting the data to a sigmoidal concentration-response curve with variable slope. The maximal achievable inhibition of forskolin-induced cAMP levels (Ymax) for each compound was expressed as relative percentage of inhibition attained using pyroglutamated apelin-13 ((Pyr1)apelin-13) peptide, which was set to 100%.
The examples disclosed below were tested in the APJ in vitro assays described above and were found having human APJ cyclic AMP (hcAMP) activity. The EC50 value of each compound is presented at the end of the example description.
The biological activity of the exemplified compounds of this invention determined by the assay described above is shown at the end of each example.

The mark [1] stands for this setting: read-out: hAPJ cAMP EC50 Potency range.

Each structure is given as a SMILES string. Read-outs that look alike come from different tables or passages of the source.

For orientation: EC50 means the concentration giving half of the maximal effect. In turn, `CCCCc1nc(O)c(C(=O)N2CC[C@H](c3ccccc3)C2)c(O)c1N(c1ccccc1)C(C)C` [Example 023, (R)-(6-butyl-2,4-dihydroxy-5-(isopropyl(phenyl)amino)pyridin-3-yl)(3-phenylpyrrolidin-1-yl)methanone] came in with an EC50 (hAPJ cAMP EC50 Potency range) of 10 to 100 nM.

Take `CCCCc1nc(O)c(S(=O)(=O)c2ccc(-c3cccnc3C)cc2)c(O)c1N1CCCc2ccccc21` [Example 024, 6-butyl-5-(3,4-dihydroquinolin-1(2H)-yl)-3-((4-(2-methylpyridin-3-yl)phenyl)sulfonyl)pyridine-2,4-diol]: the 50% effective concentration (EC50) under setting [1] lay in the range of 0.01 to 10 nM.

In the case of `CCCCc1nc(O)c(S(=O)(=O)c2ccc(-c3cccnc3C)cc2)c(O)c1N(c1ccccc1)C(C)C` [Example 025, 6-butyl-5-(isopropyl(phenyl)amino)-3-((4-(2-methylpyridin-3-yl)phenyl)sulfonyl)pyridine-2,4-diol], the EC50 under setting [1] lay in the range of 0.01 to 10 nM.

Regarding `CCCCc1nc(O)c(S(=O)(=O)c2ccc(-c3ccc(F)nc3C)cc2)c(O)c1N(c1ccccc1)C(C)C` [Example 026, 6-butyl-3-((4-(6-fluoro-2-methylpyridin-3-yl)phenyl)sulfonyl)-5-(isopropyl(phenyl)amino)pyridine-2,4-diol], under setting [1], the half-maximal effective concentration (EC50) fell in the range of 0.01 to 10 nM.

As for `CCCCc1nc(O)c(S(=O)(=O)c2ccc(-c3ccncc3C)cc2)c(O)c1N(c1ccccc1)C(C)C` [Example 027, 6-butyl-5-(isopropyl(phenyl)amino)-3-((4-(3-methylpyridin-4-yl)phenyl)sulfonyl)pyridine-2,4-diol], the EC50 under setting [1] was 0.01 to 10 nM.

For `CCCCc1nc(O)c(S(=O)(=O)c2ccc(-c3ccnc(F)c3C)cc2)c(O)c1N1CCCc2ccccc21` [Example 028, 6-butyl-5-(3,4-dihydroquinolin-1(2H)-yl)-3-((4-(2-fluoro-3-methylpyridin-4-yl)phenyl)sulfonyl)pyridine-2,4-diol], the EC50 under setting [1] is 0.01 to 10 nM.

On to `CCCCc1nc(O)c(S(=O)(=O)c2ccc(-c3ccnc(F)c3C)cc2)c(O)c1N(C)c1cccc(OC)c1` [Example 029, 6-butyl-3-((4-(2-fluoro-3-methylpyridin-4-yl)phenyl)sulfonyl)-5-((3-methoxyphenyl)(methyl)amino)pyridine-2,4-diol], for which, under setting [1], the half-maximal effective concentration (EC50) lay within 0.01 to 10 nM.

For the molecule `CCCCc1nc(O)c(S(=O)(=O)c2ccc(-c3ccc(F)nc3C)cc2)c(O)c1N(C)c1cccc(OC)c1` [Example 030, 6-butyl-3-((4-(6-fluoro-2-methylpyridin-3-yl)phenyl)sulfonyl)-5-((3-methoxyphenyl)(methyl)amino)pyridine-2,4-diol], the concentration for a half-maximal effect (EC50) under setting [1] lay in the range of 10 to 100 nM.

Turning to `CCCCc1nc(O)c(S(=O)(=O)c2ccc(-c3ccncc3C)cc2)c(O)c1N(C)c1cccc(OC)c1` [Example 031, 6-butyl-5-((3-methoxyphenyl)(methyl)amino)-3-((4-(3-methylpyridin-4-yl)phenyl)sulfonyl)pyridine-2,4-diol], the EC50 under setting [1] was in the range of 10 to 100 nM.

Turning to `CCCCc1nc(O)c(S(=O)(=O)c2ccc(-c3ccc(F)nc3C)cc2)c(O)c1N(C)c1ccc(OC)cc1` [Example 032, 6-butyl-3-((4-(6-fluoro-2-methylpyridin-3-yl)phenyl)sulfonyl)-5-((4-methoxyphenyl)(methyl)amino)pyridine-2,4-diol], the EC50 under setting [1] lay within 10 to 100 nM.

Turning to `CCCCc1nc(O)c(S(=O)(=O)c2ccc(-c3cccnc3C)cc2)c(O)c1N(C)c1ccc(OC)cc1` [Example 035, 6-butyl-5-((4-methoxyphenyl)(methyl)amino)-3-((4-(2-methylpyridin-3-yl)phenyl)sulfonyl)pyridine-2,4-diol], the EC50 under setting [1] was in the range of 10 to 100 nM.

Under “hAPJ cAMP EC50 Potency range”, `CCCCc1nc(O)c(C(=O)N2CC[C@@H](c3ccccc3)C2)c(O)c1N(C)c1ccc(OC)cc1` [Example 036, (S)-(6-butyl-2,4-dihydroxy-5-((4-methoxyphenyl)(methyl)amino)pyridin-3-yl)(3-phenylpyrrolidin-1-yl)methanone] returned a concentration giving a half-maximal response (EC50) of 10 to 100 nM.

Turning to `CCCCc1nc(O)c(S(=O)(=O)c2ccc(-c3ccncc3C)cc2)c(O)c1N(C)c1ccc(OC)cc1` [Example 037, 6-butyl-5-((4-methoxyphenyl)(methyl)amino)-3-((4-(3-methylpyridin-4-yl)phenyl)sulfonyl)pyridine-2,4-diol], under setting [1], the EC50 was 0.01 to 10 nM.

Turning to `CCCCc1nc(O)c(S(=O)(=O)c2ccc(-c3ccnc(F)c3C)cc2)c(O)c1N(C)c1ccc(OC)cc1` [Example 038, 6-butyl-3-((4-(2-fluoro-3-methylpyridin-4-yl)phenyl)sulfonyl)-5-((4-methoxyphenyl)(methyl)amino)pyridine-2,4-diol], the EC50 under setting [1] lay within 0.01 to 10 nM.

Consider `CCCCc1nc(O)c(S(=O)(=O)c2ccc(-c3cccnc3C)cc2)c(O)c1N(C)c1cccc(OC)c1` [Example 039, 6-butyl-5-((3-methoxyphenyl)(methyl)amino)-3-((4-(2-methylpyridin-3-yl)phenyl)sulfonyl)pyridine-2,4-diol], for which the concentration for a half-maximal effect (EC50) under setting [1] fell in the range of 0.01 to 10 nM.

With `CCCCc1nc(O)c(S(=O)(=O)c2ccc(-c3cccnc3C)cc2)c(O)c1N1CCC(C)c2ccccc21` (centres unmarked) [Example 042], under setting [1], the EC50 fell in the range of 10 to 100 nM.

Regarding `CCCCc1nc(O)c(S(=O)(=O)c2ccc(-c3ccnc(F)c3C)cc2)c(O)c1N1CCC(C)c2ccccc21` (centres unmarked) [Example 044, 6-butyl-3-((4-(2-fluoro-3-methylpyridin-4-yl)phenyl)sulfonyl)-5-(4-methyl-3,4-dihydroquinolin-1(2H)-yl)pyridine-2,4-diol], the EC50 under setting [1] fell in the range of 0.01 to 10 nM.

Turning to `CCCCc1nc(O)c(C(=O)N2CC[C@@H](c3ccccc3)C2)c(O)c1N1CCC(C)c2ccccc21` (stereo partly drawn) [Example 045, (6-butyl-2,4-dihydroxy-5-(4-methyl-3,4-dihydroquinolin-1(2H)-yl)pyridin-3-yl)((S)-3-phenylpyrrolidin-1-yl)methanone], the 50% effective concentration (EC50) under setting [1] was in the range of 0.01 to 10 nM.

Take `CCCCc1nc(O)c(S(=O)(=O)c2ccc(-c3cccnc3C)cc2)c(O)c1N1c2ccccc2CCC1C` (centres unmarked) [Example 046, 6-butyl-5-(2-methyl-3,4-dihydroquinolin-1(2H)-yl)-3-((4-(2-methylpyridin-3-yl)phenyl)sulfonyl)pyridine-2,4-diol]: the EC50 under setting [1] lay within 0.01 to 10 nM.

Turning to `CCCCc1nc(O)c(S(=O)(=O)c2ccc(-c3ccc(F)nc3C)cc2)c(O)c1N1c2ccccc2CCC1C` (centres unmarked) [Example 048, 6-butyl-3-((4-(6-fluoro-2-methylpyridin-3-yl)phenyl)sulfonyl)-5-(2-methyl-3,4-dihydroquinolin-1(2H)-yl)pyridine-2,4-diol], the 50% effective concentration (EC50) under setting [1] lay within 0.01 to 10 nM.

For the molecule `CCN(c1ccccc1)c1c(CC2CC2)nc(O)c(S(=O)(=O)c2ccc(-c3ccnc(F)c3C)cc2)c1O` [Example 049, 6-(cyclopropylmethyl)-5-(ethyl(phenyl)amino)-3-((4-(2-fluoro-3-methylpyridin-4-yl)phenyl)sulfonyl)pyridine-2,4-diol], the EC50 under setting [1] lay within 0.01 to 10 nM.

`CCN(c1ccccc1)c1c(CC2CC2)nc(O)c(S(=O)(=O)c2ccc(-c3cccnc3C)cc2)c1O` [Example 050, 6-(cyclopropylmethyl)-5-(ethyl(phenyl)amino)-3-((4-(2-methylpyridin-3-yl)phenyl)sulfonyl)pyridine-2,4-diol]: under setting [1], the EC50 is 0.01 to 10 nM.

As to `CCN(c1ccccc1)c1c(CC2CC2)nc(O)c(S(=O)(=O)c2ccc(-c3ccc(F)nc3C)cc2)c1O` [Example 051, 6-(cyclopropylmethyl)-5-(ethyl(phenyl)amino)-3-((4-(6-fluoro-2-methylpyridin-3-yl)phenyl)sulfonyl)pyridine-2,4-diol], under setting [1], the EC50 lay in the range of 0.01 to 10 nM.

Consider `CCN(c1ccccc1)c1c(CC2CC2)nc(O)c(S(=O)(=O)c2ccc(-c3ccncc3C)cc2)c1O` [Example 052, 6-(cyclopropylmethyl)-5-(ethyl(phenyl)amino)-3-((4-(3-methylpyridin-4-yl)phenyl)sulfonyl)pyridine-2,4-diol], for which, under setting [1], the EC50 is 0.01 to 10 nM.

`CCN(c1ccccc1)c1c(CC2CC2)nc(O)c(C(=O)N2CCC(c3ncc(F)cc3F)C2)c1O` (centres unmarked) [Example 053, (6-(cyclopropylmethyl)-5-(ethyl(phenyl)amino)-2,4-dihydroxypyridin-3-yl)(3-(3,5-difluoropyridin-2-yl)pyrrolidin-1-yl)methanone] came in with a concentration for a half-maximal effect (EC50) (hAPJ cAMP EC50 Potency range) of 10 to 100 nM.

As for `CCCCc1nc(O)c(S(=O)(=O)c2ccc(-c3ccccc3C(=O)N(C)C)cc2)c(O)c1N1CCCc2ccccc21` [Example 054, 4′-((6-butyl-5-(3,4-dihydroquinolin-1(2H)-yl)-2,4-dihydroxypyridin-3-yl)sulfonyl)-N,N-dimethyl-[1,1′-biphenyl]-2-carboxamide], the EC50 under setting [1] lay within 10 to 100 nM.

Values taken from patent publication US10669258B2, “3-sulfonyl-5-aminopyridine-2,4-diol APJ agonists” (BRISTOL-MYERS SQUIBB COMPANY, priority 2016, dated 2020).
